The values that follow come from patent publication US12435059B2, “AMP-activated protein kinase inhibitors and methods of making and using the same” (The Regents of the University of Colorado, priority 2019, dated 2025).

Experiment [1] concerns K562 cells. The experiment in a line: CellTox green cellular toxicity assay in K562 cells (glucose-free media). The format is cell-based. As to conditions: for EC50: Homo sapiens. The text has this: Fluorescence was plotted against inhibitor log-dose and evaluated by a non-linear regression to determine half-maximal effect concentration (EC50) values, where possible.
(§1) In order to increase the reliance of the cells on AMPK function, assays were needed that could be performed under glucose-free conditions. Therefore in order to elucidate the mechanism of action of the AMPK inhibitors, a CellTiter-Glo cell viability assay (FIG. 3B), which provide a readout proportional to ATP concentration, and thus, cellular viability, as well as a CellTox green cellular toxicity assay (FIG. 3C and FIG. 3D), which contain a dye that fluoresces upon DNA-binding in cells with impraied membrane integrity due to cytotoxicity were performed in K562 cells grown in glucose-free media. The results are summarized in Table 2 (values are the mean±S.D. (n=3)).

A further experiment addresses 468 kinases (Homo sapiens, UniProt Q14004). The experiment in a line: biochemical. In kind it is binding. As to conditions: read-out: % Inhibition @ 100 nM, CDC2L5.
The target of a further experiment is BTK (Homo sapiens (Human), UniProt Q06187). The experiment in a line: Kinome binding analysis at 100 nM, BTK.
Experiment [2] deals with T1, AMPKα1 (Homo sapiens (Human), UniProt Q13131). As to conditions: purified AMPK protein; read-out: AMPKα1 IC50, 32P radioactivity assay; cited from earlier work.
Target sequence in this assay (Q13131 whole entry): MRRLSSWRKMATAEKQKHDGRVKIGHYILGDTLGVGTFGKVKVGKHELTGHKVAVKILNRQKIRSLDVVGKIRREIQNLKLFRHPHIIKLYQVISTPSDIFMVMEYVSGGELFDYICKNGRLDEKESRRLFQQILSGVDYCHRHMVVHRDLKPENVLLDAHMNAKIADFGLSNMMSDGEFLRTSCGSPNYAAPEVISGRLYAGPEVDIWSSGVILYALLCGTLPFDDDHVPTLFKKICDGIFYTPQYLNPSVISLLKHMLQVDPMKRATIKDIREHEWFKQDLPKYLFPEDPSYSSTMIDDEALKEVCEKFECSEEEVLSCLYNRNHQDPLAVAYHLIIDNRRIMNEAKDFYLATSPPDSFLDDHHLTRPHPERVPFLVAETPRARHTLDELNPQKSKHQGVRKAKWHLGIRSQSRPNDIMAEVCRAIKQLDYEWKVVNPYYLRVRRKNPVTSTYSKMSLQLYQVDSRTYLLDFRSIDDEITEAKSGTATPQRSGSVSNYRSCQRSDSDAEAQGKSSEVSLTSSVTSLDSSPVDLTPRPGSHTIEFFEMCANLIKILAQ
Target sequence in this assay (Q9Y478 whole entry partner): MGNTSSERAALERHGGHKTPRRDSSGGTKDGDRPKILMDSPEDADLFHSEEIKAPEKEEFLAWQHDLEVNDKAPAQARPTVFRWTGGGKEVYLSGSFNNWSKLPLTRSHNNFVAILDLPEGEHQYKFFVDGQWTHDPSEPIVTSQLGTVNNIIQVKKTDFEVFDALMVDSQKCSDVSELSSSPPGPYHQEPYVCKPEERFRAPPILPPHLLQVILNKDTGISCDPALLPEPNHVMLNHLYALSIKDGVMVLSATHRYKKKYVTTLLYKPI
Target sequence in this assay (P54619 whole entry partner): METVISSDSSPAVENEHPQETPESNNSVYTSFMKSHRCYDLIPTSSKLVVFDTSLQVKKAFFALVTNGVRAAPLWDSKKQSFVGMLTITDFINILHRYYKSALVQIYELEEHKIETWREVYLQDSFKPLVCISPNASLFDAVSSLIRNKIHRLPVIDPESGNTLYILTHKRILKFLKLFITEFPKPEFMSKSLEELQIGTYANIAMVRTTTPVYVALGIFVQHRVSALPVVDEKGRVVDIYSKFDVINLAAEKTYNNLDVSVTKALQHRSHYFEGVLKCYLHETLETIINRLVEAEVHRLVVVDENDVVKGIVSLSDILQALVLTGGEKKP
Another experiment relates to cellular AMPK. The experiment in a line: p-ACC(Ser79) ELISA in K562 cell lysates (glucose-free media, 2-DG). As to conditions: for p-ACC level reduction across concentration range compared with sunitinib: K562, dose response, FIG. 2B; for Relative p-ACC(Ser79) level: K562, glucose-free media, 2-DG 12 mM, compound 5 μM single dose, relative to DMSO control. In kind it is cell-based. Here is the method:
FIGS. 2A and 2B are a series of graphs showing the effects of compounds of the present disclosure on cellular levels of p-ACC(Ser79) in K562 cells. FIG. 2A Quantitative ELISA determination of p-ACC(Ser79) levels in K562 lysates (1.0 mg mL^−1 total protein) following growth in glucose-free media for 24 h, 2-DG (12 mM) treatment for 1 h followed by treatment with inhibitor compounds at 5.0 μM for 2 h. Relative p-ACC levels are reported as a percentage of levels resultant from DMSO control treatment. […] Cells were collected, washed with PBS and lysed on ice in lysis buffer containing 1% Triton X (Cell Signaling). Lysates were someated (1×5 seconds) and centrifuged for 10 minutes at 10,000 rpm and 4° C., and the protein concentration in supernatants was determined by Lowry assay. Lysates were diluted with ELISA PathScan® sample diluent to a final volume of 100 μL and protein concentration of 1.0 mg/ml prior to use. The concentration of p-ACC (Ser79) was determined using an enzyme-linked immunosorbent assay according to recommended protocol (Cell Signaling, ELISA PathScan® phospho-Acetyl-CoA Carboxylase (Ser79)) and expressed as a relative percentage of the DMSO control.
The AMPK substrate ACC is used as a biomarker for the relative activity of AMPK, and the levels of p-ACC(Ser79) were measured by ELISA in the absence or presence of the compounds to determine the compounds' effects on cellular AMPK activity. The presence of total AMPK, p-AMPK, total ACC, and p-ACC was measured by Western blot in a panel of leukemic cell lines grown in glucoe competent or glucose-free media. […] The cell lysates from K562 cells grown in glucose-free media in the presence 2-DG and treated with compounds of the present disclosure were analyzed by the p-ACC(Ser79) ELISA to determine the effect of the compounds on cellular AMPK activity.

Experiment [3] has as its system K562 cells. The experiment in a line: CellTiter-Glo cell viability assay in K562 cells (glucose-free media). The format is cell-based. As to conditions: Homo sapiens, read-out: EC50 CellTiter Glo 24 h. Here is the method:
(§2) The cells were incubated with inhibitors for 24 hours, before the plates were equilibrated to room temperature and 100 μL CellTiter-Glo reagent was added. […] Luminescent signal was plotted against the inhibitor log-dose and evaluated by a non-linear regression to determine half-maximal effect concentration (EC50) values, where possible.
as §1

The subject of experiment [4] is K562 cells. The experiment in a line: MTS cell viability assay in K562 cells. In kind it is cell-based. As to conditions: Homo sapiens; K562, RPMI-1640; Table 2 head prints 24 h, method and FIG. 3A legend 72 hours. On the procedure: as §2
An MTS assay was utilized to assess the effect of inhibitors on K562 viability.
In general terms: Tetrazolium dyes change colour on reduction, which living cells bring about.

The target in a further experiment is KDR (Homo sapiens (Human), UniProt P35968). The experiment in a line: LanthaScreen Eu TR-FRET KDR competitive binding assay. As to conditions: read-out: IC50 (nM) KDR; mean±S.D. (n=3); competitive binding.
In experiment [5] the target is T1, AMPKα1. The experiment in a line: LANCE Eu TR-FRET recombinant kinase assay, AMPK(α1). In kind it is biochemical. On the procedure:
(§3) Assays were performed at 25° C. in a reaction mixture consisting of 2.5 μL serially diluted inhibitor solution, 2.5 μL kinase, 2.5 μL ATP and 2.5 μL substrate. Reagents were incubated for 1 hr before the reaction was halted through the addition of EDTA (10 mM) after which Eu anti-phospho-CREB (Ser133) antibody (PerkinElmer) was added at a final concentration of 2 nM for 1 hr. […] (n=3)).
Target sequence in this assay (Q13131 whole entry, looked up): as the sequence (Q13131 whole entry) above
Target sequence in this assay (Q9Y478 whole entry partner, looked up): as the sequence (Q9Y478 whole entry partner) above
Target sequence in this assay (P54619 whole entry partner, looked up): as the sequence (P54619 whole entry partner) above
For orientation: In TR-FRET formats the signal depends on donor and acceptor labels being close together.

A further experiment addresses AMPK(α2) (Homo sapiens (Human), UniProt P54646). Description: LANCE Eu TR-FRET recombinant kinase assay, AMPK(α2). The format is biochemical. Here is the method:
as §3

Where [6] appears, read: read-out: EC50 CellTox Green 48 h, 48 h.

The structures appear in SMILES notation. Read-outs that look alike come from different tables or passages of the source.

AMPK(α2), sequence (P54646 whole entry, looked up): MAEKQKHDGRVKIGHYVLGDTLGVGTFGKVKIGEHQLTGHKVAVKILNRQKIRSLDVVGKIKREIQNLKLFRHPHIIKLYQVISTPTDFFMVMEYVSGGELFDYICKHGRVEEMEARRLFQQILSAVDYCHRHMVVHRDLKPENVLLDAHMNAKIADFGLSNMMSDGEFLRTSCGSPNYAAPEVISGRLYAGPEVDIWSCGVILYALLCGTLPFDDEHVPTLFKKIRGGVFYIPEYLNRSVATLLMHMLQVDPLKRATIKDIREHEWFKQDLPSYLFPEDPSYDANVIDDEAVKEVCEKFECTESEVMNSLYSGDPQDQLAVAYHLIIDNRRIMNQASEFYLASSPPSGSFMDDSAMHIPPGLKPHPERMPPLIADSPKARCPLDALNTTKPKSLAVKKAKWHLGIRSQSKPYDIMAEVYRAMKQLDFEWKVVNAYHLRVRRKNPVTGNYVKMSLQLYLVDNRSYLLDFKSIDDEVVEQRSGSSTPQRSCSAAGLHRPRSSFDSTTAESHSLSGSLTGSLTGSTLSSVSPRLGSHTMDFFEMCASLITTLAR
AMPK(α2), sequence (Q9Y478 whole entry partner, looked up): as the sequence (Q9Y478 whole entry partner) above
AMPK(α2), sequence (P54619 whole entry partner, looked up): as the sequence (P54619 whole entry partner) above
BTK, sequence (Q06187 whole entry): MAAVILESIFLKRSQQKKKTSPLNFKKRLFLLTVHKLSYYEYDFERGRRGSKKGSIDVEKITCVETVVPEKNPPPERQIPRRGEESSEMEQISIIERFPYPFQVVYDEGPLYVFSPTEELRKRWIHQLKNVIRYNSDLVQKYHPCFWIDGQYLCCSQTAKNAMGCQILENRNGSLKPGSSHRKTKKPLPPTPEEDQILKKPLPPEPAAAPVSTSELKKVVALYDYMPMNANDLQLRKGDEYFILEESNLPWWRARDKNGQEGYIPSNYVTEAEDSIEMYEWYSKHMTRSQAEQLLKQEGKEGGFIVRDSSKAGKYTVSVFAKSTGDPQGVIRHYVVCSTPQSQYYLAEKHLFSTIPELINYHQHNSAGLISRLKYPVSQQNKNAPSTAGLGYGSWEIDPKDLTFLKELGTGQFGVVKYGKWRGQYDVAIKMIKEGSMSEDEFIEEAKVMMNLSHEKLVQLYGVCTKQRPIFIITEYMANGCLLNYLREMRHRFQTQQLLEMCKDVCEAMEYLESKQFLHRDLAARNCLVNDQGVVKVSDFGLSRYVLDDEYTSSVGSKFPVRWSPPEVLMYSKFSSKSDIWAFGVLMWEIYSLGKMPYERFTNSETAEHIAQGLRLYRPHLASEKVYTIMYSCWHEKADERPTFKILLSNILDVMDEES
KDR, sequence (P35968 20-1356): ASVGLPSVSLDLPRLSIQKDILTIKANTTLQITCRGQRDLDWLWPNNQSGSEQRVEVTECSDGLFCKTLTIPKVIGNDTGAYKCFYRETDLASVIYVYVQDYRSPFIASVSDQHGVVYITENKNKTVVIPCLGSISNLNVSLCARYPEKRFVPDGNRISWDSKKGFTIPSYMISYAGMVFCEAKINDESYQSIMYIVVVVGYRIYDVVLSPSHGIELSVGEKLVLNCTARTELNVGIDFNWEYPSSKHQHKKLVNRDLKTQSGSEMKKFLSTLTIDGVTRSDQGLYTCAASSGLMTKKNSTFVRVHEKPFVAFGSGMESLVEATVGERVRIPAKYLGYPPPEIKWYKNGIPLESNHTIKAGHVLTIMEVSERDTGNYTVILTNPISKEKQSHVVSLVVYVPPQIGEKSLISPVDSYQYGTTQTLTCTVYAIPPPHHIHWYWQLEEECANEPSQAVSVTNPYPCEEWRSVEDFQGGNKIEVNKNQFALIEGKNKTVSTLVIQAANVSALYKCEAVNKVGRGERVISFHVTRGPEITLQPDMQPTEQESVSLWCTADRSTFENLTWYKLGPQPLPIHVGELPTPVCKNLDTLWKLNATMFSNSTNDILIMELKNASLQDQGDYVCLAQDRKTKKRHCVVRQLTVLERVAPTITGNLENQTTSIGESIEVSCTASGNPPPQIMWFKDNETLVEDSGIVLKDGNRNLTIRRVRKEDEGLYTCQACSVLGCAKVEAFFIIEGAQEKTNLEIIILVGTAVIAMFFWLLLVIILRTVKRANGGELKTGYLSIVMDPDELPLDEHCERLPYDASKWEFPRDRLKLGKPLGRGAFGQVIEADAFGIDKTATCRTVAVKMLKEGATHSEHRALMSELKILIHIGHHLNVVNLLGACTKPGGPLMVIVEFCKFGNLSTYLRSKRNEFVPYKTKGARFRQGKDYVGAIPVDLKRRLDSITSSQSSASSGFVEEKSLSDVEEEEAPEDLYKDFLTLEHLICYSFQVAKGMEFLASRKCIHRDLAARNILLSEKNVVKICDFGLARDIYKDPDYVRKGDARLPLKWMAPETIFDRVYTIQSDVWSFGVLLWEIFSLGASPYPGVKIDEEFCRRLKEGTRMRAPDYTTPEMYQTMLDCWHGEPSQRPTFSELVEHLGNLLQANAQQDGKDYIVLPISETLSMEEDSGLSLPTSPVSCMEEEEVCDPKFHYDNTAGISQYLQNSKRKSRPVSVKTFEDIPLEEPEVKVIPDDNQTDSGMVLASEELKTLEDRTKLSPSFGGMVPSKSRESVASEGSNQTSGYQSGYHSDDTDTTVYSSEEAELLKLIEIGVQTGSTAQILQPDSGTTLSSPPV

What is called inhibition is the change of the read-out against control, counted positive when it falls. `CCN(CC)CCNC(=O)c1c(C)[nH]c(/C=C2\C(=O)Nc3ccc(F)cc32)c1C` [Sunitinib, (Z)—N-(2-(Diethylamino)ethyl)-5-((5-fluoro-2-oxoindolin-3-ylidene)methyl)-2,4-dimethyl-1H-pyrrole-3-carboxamide, reference compound]: the “CellTox Green 24 h % inhibition at 50 μM” value in the experiment with K562 cells [1] (24 h, at 50 μM) is 61% at 50 μM. Further, the inhibition at 0.1 µM amounted to 49% at 468 kinases and 91.3% at BTK (read-out: Percentage inhibition at 100 nM, BTK). Besides, at BTK (100 nM), the “BTK inhibition, in words” value is on record as “strongly inhibited”.

The term IC50 denotes the midpoint of a concentration-inhibition curve. For the compound `CNC(=O)c1ccccc1Oc1nc(Nc2cc(OC)c(OC)c(OC)c2)ncc1Br` [SBI-0206965], the IC50 on AMPKα1 [2] is 0.4 µM.

Regarding `CCN(CC)CCNC(=O)c1c(C)[nH]c(/C=C2\C(=O)Nc3ccc(CCO)cc32)c1C` [Compound 65], in the experiment on cellular AMPK, the “p-ACC level reduction across concentration range compared with sunitinib” value is “improvements in cellular AMPK inhibition over sunitinib at all concentrations apart from 50 μM”.

Turning to `CCN(CC)CCNC(=O)c1c(C)[nH]c(/C=C2\C(=O)Nc3ccc(CCC(N)=O)cc32)c1C` [Compound 67], in the experiment with cellular AMPK, the “p-ACC level reduction across concentration range compared with sunitinib” value is “significant improvements in p-ACC level reduction with respect to sunitinib at both 3.125 mM and 12.5 mM”.

Usually EC50 stands for the concentration at which the effect is half-maximal. For `CCN(CC)CCNC(=O)c1c(C)[nH]c(/C=C2\C(=O)Nc3ccc(CCC#N)cc32)c1C` [Compound No. 15, (Z)-5-((5-(2-cyanoethyl)-2-oxoindolin-3-ylidene)methyl)-N-(2-(diethylamino)ethyl)-2,4-dimethyl-1H-pyrrole-3-carboxamide], the EC50 in the experiment on K562 cells [1] (setting [6]) turned out to be 13.6 ± 1.07 µM; in the experiment on K562 cells [3], 17.8 ± 0.78 µM; with K562 cells [4] it was 14.8 ± 0.22 µM. The “Relative p-ACC(Ser79) level” value with cellular AMPK is recorded as 34.1 % of control. The IC50 was 1330 ± 140 nM on KDR; 164 ± 10 nM on AMPKα1 [5] (mean±S.D. (n=3), ATP 8 μM, read-out: IC50 (nM) AMPK(α1)); 32.4 ± 7.8 nM on AMPK(α2) (mean±S.D. (n=3), ATP 20 μM).

For the compound `CCN(CC)CCNC(=O)c1c(C)[nH]c(/C=C2\C(=O)N(C)c3ccc(F)cc32)c1C` [Compound No. 1, (Z)—N-(2-(Diethylamino)ethyl)-5-((5-fluoro-1-methyl-2-oxoindolin-3-ylidene)methyl)-2,4-dimethyl-1H-pyrrole-3-carboxamide], the EC50 with K562 cells [1] (read-out: EC50 CellTox Green 24 h, 24 h) came to 12.1 ± 0.91 µM; with K562 cells [1] (setting [6]), 6.91 ± 0.06 µM; with K562 cells [3], 11.8 ± 0.78 µM; in the experiment on K562 cells [4], 6.79 ± 0.15 µM. Also, the “Relative p-ACC(Ser79) level” value in the experiment on cellular AMPK is given as 97.1 % of control. For the same compound, at AMPKα1 [5] (at 20 μM), the “AMPK(α1) % inhibition at 20 μM” value is on record as 40%. For the same compound, the “AMPK(α2) % inhibition at 10 μM” value at AMPK(α2) (at 10 μM) is recorded as 17%.
